From ChEMBL document CHEMBL1641526, “Structure-activity relationship (SAR) of the α-amino acid residue of potent tetrahydroisoquinoline (THIQ)-derived LFA-1/ICAM-1 antagonists” (Bioorg Med Chem Lett, 2011)

What was measured:
[1] = biological target: T1, Intercellular adhesion molecule (ICAM-1), Integrin alpha-L/beta-2 (Homo sapiens, UniProt P05107+P05362+P20701); experiment: Inhibition of LFA1/ICAM1 interaction in human Hut-78 cells; assay type: cell-based
[2] = biological target: T1, Intercellular adhesion molecule (ICAM-1), Integrin alpha-L/beta-2; experiment: Inhibition of LFA1/ICAM1 interaction in human Hut-78 cells in presence of 10% human serum; assay type: cell-based
[3] = Half life in Sprague-Dawley rat at 5 mg/kg administered as single dose; assay type: ADME, organism-based; parameters: dose 5 mg/kg; conditions: in vivo
[4] = Clearance in Sprague-Dawley rat at 5 mg/kg administered as single dose; assay type: ADME, organism-based; parameters: dose 5 mg/kg; conditions: in vivo
[5] = AUC in Sprague-Dawley rat at 5 mg/kg administered as single dose; assay type: ADME, organism-based; parameters: dose 5 mg/kg; conditions: plasma
[6] = Metabolic stability in human liver microsomes after 30 mins by LC/MS analysis; assay type: ADME, Microsome; conditions: read-out: Stability
[7] = Metabolic stability in Sprague-Dawley rat liver microsomes after 30 mins by LC/MS analysis; assay type: ADME, Microsome; conditions: read-out: Stability

T1 sequence (P20701 whole entry): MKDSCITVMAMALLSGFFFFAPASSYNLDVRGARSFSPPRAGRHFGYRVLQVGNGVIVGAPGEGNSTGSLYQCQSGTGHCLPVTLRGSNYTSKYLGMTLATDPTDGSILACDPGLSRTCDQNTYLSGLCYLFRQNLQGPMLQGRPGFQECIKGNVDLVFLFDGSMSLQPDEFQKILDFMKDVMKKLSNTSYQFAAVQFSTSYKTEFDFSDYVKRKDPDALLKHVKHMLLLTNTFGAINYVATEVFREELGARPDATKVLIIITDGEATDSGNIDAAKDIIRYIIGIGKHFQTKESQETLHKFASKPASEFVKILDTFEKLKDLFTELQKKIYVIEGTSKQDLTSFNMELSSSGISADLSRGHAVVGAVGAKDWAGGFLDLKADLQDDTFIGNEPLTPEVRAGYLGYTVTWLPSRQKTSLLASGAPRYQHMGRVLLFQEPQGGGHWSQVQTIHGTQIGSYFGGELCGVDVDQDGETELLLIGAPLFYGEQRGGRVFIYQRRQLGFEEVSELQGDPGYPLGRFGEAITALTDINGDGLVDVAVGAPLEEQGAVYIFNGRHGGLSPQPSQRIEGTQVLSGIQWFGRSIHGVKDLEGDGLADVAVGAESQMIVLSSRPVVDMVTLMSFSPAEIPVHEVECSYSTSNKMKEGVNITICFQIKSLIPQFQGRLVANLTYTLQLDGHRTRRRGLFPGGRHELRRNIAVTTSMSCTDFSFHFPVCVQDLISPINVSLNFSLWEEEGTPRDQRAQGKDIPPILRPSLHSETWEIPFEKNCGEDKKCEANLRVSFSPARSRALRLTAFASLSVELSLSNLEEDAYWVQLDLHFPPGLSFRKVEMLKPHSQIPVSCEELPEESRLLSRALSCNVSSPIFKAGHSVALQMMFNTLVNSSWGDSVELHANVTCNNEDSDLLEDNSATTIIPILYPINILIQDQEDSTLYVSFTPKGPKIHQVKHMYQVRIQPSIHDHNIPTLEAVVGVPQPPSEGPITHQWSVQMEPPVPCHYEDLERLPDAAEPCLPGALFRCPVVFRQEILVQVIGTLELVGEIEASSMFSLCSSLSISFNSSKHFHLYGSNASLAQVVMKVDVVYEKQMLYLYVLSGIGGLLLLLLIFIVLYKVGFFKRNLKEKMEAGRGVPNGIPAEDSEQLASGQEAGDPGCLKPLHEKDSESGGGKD
T1 sequence (P05362 whole entry): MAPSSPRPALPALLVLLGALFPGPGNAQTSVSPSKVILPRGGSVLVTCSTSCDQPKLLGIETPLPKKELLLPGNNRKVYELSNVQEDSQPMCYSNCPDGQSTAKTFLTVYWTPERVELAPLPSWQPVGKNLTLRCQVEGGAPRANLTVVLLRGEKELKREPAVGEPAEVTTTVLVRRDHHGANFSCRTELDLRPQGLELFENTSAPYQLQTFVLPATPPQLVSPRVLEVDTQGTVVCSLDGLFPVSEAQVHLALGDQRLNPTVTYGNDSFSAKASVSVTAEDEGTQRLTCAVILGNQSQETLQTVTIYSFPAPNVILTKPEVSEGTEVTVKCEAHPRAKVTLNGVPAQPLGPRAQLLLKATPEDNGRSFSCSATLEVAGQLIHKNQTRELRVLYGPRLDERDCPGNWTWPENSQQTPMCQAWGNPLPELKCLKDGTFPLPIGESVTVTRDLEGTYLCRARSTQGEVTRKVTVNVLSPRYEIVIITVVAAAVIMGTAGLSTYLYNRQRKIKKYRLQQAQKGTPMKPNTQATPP
T1 sequence (P05107 whole entry): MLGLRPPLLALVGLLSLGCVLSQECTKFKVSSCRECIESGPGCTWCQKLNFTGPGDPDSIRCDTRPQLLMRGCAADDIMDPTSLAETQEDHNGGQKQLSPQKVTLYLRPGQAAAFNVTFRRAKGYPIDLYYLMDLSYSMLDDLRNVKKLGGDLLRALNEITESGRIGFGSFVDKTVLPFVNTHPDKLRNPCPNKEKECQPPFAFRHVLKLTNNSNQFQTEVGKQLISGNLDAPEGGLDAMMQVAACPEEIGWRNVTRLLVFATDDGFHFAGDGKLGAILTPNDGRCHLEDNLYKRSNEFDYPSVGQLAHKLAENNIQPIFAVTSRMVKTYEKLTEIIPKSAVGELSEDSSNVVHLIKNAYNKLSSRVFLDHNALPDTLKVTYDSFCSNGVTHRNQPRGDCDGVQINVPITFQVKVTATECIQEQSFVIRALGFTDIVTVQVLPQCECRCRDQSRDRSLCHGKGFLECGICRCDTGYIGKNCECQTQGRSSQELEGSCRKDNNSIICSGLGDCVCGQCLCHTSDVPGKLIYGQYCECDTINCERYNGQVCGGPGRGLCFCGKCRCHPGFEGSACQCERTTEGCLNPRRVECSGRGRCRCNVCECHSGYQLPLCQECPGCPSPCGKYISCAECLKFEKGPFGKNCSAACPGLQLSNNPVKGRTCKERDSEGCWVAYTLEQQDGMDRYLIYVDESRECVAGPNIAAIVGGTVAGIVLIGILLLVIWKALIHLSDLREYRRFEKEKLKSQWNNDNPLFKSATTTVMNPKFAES

Structure (SMILES)	IC50 [1] [nM]	IC50 [2] [nM]	further results
NS(=O)(=O)n1cc(C[C@H](NC(=O)c2c(Cl)cc3c(c2Cl)CCN(C(=O)c2ccc(Cl)cc2)C3)C(=O)O)c2ccccc21	> 1000	–	–
CS(=O)(=O)N1CCC(C[C@H](NC(=O)c2c(Cl)cc3c(c2Cl)CCN(C(=O)c2ccc4ccoc4c2)C3)C(=O)O)C1 (stereo not given in full)	1000	–	–
Cn1cnc(C[C@H](NC(=O)c2c(Cl)cc3c(c2Cl)CCN(C(=O)c2ccc(Cl)cc2)C3)C(=O)O)c1	560	–	–
Cc1cccc2c1c(C[C@H](NC(=O)c1c(Cl)cc3c(c1Cl)CCN(C(=O)c1ccc(Cl)cc1)C3)C(=O)O)cn2S(C)(=O)=O	> 1000	–	–
CS(=O)(=O)c1ncc(C[C@H](NC(=O)c2c(Cl)cc3c(c2Cl)CCN(C(=O)c2ccc4ccoc4c2)C3)C(=O)O)[nH]1	30	560	–
O=C(NC[C@H](NC(=O)c1c(Cl)cc2c(c1Cl)CCN(C(=O)c1ccc3ccoc3c1)C2)C(=O)O)c1cccs1	5	950	–
Cc1cccc2c(C[C@H](NC(=O)c3c(Cl)cc4c(c3Cl)CCN(C(=O)c3ccc(Cl)cc3)C4)C(=O)O)cn(S(C)(=O)=O)c12	140	25000	–
CS(=O)(=O)c1ccc(C[C@H](NC(=O)c2c(Cl)cc3c(c2Cl)CCN(C(=O)c2ccc4ccoc4c2)C3)C(=O)O)o1	1.2	96	half-life [3]: 25.8 min; clearance [4]: 60 mL/min/kg; AUC [5]: 1510 ng·h/mL; remaining at 0.5 h [6]: > 95%; remaining at 0.5 h [7]: > 65%
CC(C)n1cc(C[C@H](NC(=O)c2c(Cl)cc3c(c2Cl)CCN(C(=O)c2ccc(Cl)cc2)C3)C(=O)O)nn1	59	1000	half-life [3]: 138 min; clearance [4]: > 60 mL/min/kg; AUC [5]: 1410 ng·h/mL; remaining at 0.5 h [6]: 92%
CC(C)c1cn(C[C@H](NC(=O)c2c(Cl)cc3c(c2Cl)CCN(C(=O)c2ccc(Cl)cc2)C3)C(=O)O)nn1	310	–	–
CC(C)c1cc(C[C@H](NC(=O)c2c(Cl)cc3c(c2Cl)CCN(C(=O)c2ccc(Cl)cc2)C3)C(=O)O)[nH]n1	250	–	–
O=C(NC[C@H](NC(=O)c1c(Cl)cc2c(c1Cl)CCN(C(=O)c1ccc(Cl)cc1)C2)C(=O)O)c1cccs1	–	1500	–
CS(=O)(=O)n1cc(C[C@H](NC(=O)c2c(Cl)cc3c(c2Cl)CCN(C(=O)c2ccc(Cl)cc2)C3)C(=O)O)c2ccccc21	100	25000	–
CC(=O)n1cc(C[C@H](NC(=O)c2c(Cl)cc3c(c2Cl)CCN(C(=O)c2ccc(Cl)cc2)C3)C(=O)O)c2ccccc21	820	–	–
CC(C)n1cc(C[C@H](NC(=O)c2c(Cl)cc3c(c2Cl)CCN(C(=O)c2ccc4ccoc4c2)C3)C(=O)O)nn1	19	950	half-life [3]: 58.2 min; clearance [4]: 26 mL/min/kg; AUC [5]: 3680 ng·h/mL; remaining at 0.5 h [6]: 86%; remaining at 0.5 h [7]: > 95%
Cc1ccc2c(C[C@H](NC(=O)c3c(Cl)cc4c(c3Cl)CCN(C(=O)c3ccc(Cl)cc3)C4)C(=O)O)cn(S(C)(=O)=O)c2c1	39	25000	–
Cc1ccc2c(c1)c(C[C@H](NC(=O)c1c(Cl)cc3c(c1Cl)CCN(C(=O)c1ccc(Cl)cc1)C3)C(=O)O)cn2S(C)(=O)=O	26	11000	–
O=C(N[C@@H](Cc1cn(-c2ccccc2)cn1)C(=O)O)c1c(Cl)cc2c(c1Cl)CCN(C(=O)c1ccc(Cl)cc1)C2	> 1000	–	–
CS(=O)(=O)c1ccc(C[C@H](NC(=O)c2c(Cl)cc3c(c2Cl)CCN(C(=O)c2ccc4ccoc4c2)C3)C(=O)O)s1	150	–	–
CCOC(=O)[C@H](CNC(=O)c1cccs1)NC(=O)c1c(Cl)cc2c(c1Cl)CCN(C(=O)c1ccc3ccoc3c1)C2	–	950	–
CC(C)n1cc(C[C@H](NC(=O)c2c(Cl)cc3c(c2Cl)CCN(C(=O)c2cc4ccccn4n2)C3)C(=O)O)nn1	7	260	–
CC(C)c1cnc(C[C@H](NC(=O)c2c(Cl)cc3c(c2Cl)CCN(C(=O)c2ccc(Cl)cc2)C3)C(=O)O)s1	> 1000	–	–
CC(C)n1cnc(C[C@H](NC(=O)c2c(Cl)cc3c(c2Cl)CCN(C(=O)c2ccc(Cl)cc2)C3)C(=O)O)c1	170	–	–
CC(C)n1cc(C[C@H](NC(=O)c2c(Cl)cc3c(c2Cl)CCN(C(=O)c2cc4ccccc4o2)C3)C(=O)O)nn1	5	190	–
O=C(N[C@@H](Cc1c[nH]cn1)C(=O)O)c1c(Cl)cc2c(c1Cl)CCN(C(=O)c1ccc(Cl)cc1)C2	430	–	–
